In article PMC7387483, “In silico identification and functional validation of linear cationic α-helical antimicrobial peptides in the ascidian Ciona intestinalis” (Scientific Reports, 2020):
Where no end group is shown, it is not given here.

What was measured:
[1] = test system: Escherichia coli (NBRC14237); format: cell-based; conditions: for Antimicrobial activity against Escherichia coli (in words): segments with Na^4vSS less than − 30, Supplementary Fig. S1; for MIC, E. coli (NBRC 14237): NBRC14237
Description: (§1) Antimicrobial activities of the peptides were measured as described previously. Synthetic peptides were added to the microbial suspension in the individual wells of a microplate at final concentrations of 3.125, 6.25, 12.5, and 25 μM. The relative activities (RA) were calculated by the equation RA = ((APC − ANC) − ASA)/(APC − ANC), where APC, ANC, and ASA represent the absorbance of positive control, negative control, and samples, respectively. The bacteria and yeast strains used were Escherichia coli (NBRC14237), Staphylococcus aureus (NBRC12732), Pseudomonas aeruginosa (NBRC12582), and Saccharomyces cerevisiae (NBRC10217), which were purchased from Biological Resource Center, National Institute of Technology and Evaluation (NBRC, Tokyo, Japan). The interaction between Ciona LCAMPs and membrane interface was predicted using AmphipaSeek server (https://npsa-pbil.ibcp.fr/cgi-bin/npsa_automat.pl?page=/NPSA/npsa_amphipaseek.html)[28].

[2] = cited from earlier work
Description: We examined the effects of five novel Ciona LCAMPs in the presence of NaCl on antimicrobial activity against E. coli. Reflective of the habitat of C. intestinalis, salt resistance was found in all peptides at the concentration of 12.5 μM (Fig. 2).

[3] = test system: Pseudomonas aeruginosa (NBRC12582); format: cell-based
Description: as §1

[4] = test system: Saccharomyces cerevisiae (NBRC10217); format: cell-based
Description: as §1

[5] = test system: Staphylococcus aureus (NBRC12732); format: cell-based
Description: as §1

bacteria = conditions: in vitro development-resistance studies; cited from earlier work
From the text: Antimicrobial peptides are crucial and widespread effector molecules of the innate immune system and are a part of the first line of host defense against invading pathogens[1],[2]. To date, thousands of antimicrobial peptides have been identified from bacteria to mammals and have been classified into several groups on basis of the structure and sequence features[3]–[5]. Of these, linear cationic α-helical antimicrobial peptides (LCAMPs), the genes of which encode short amphipathic peptides without cysteine residues, are the most abundant and widespread in organisms. LCAMPs are known for their ...

Row | Substance | Antimicrobial activity against Escherichia coli (in words) [1] | MIC, E. coli (NBRC 14237) [1] [µM] | MIC, S. cerevisiae (NBRC 10217) [4] [µM] | MIC, S. aureus (NBRC 12732) [5] [µM] | also measured
1 | AERLMRKAAKDHWSNKMAKDVIWWEQ [KH.S930.2, cationic amphipathic α-helical segment with Na4vSS less than − 30, synthetic peptide] | no or weak antimicrobial activities | – | – | – | –
2 | ALRSAVRTVARVGRAVLPHVAI [Ci-PAP-A, known salt-resistant LCAMP from C. intestinalis hemocyte EST database] | – | – | – | – | NaCl concentration in the presence of which antimicrobial activity is exhibited [2]: 100 mM
3 | FGRRRRVPGRRRRWWNERAMNEI [KH.S1007.2, cationic amphipathic α-helical segment with Na4vSS less than − 30, synthetic peptide] | no or weak antimicrobial activities | – | – | – | –
4 | FRRRRRRRRHWHHHHHYHYHHHRRRRRRRRRW [KH.L63.9, cationic amphipathic α-helical segment with Na4vSS less than − 30, synthetic peptide] | no or weak antimicrobial activities | – | – | – | –
5 | KGGKFLNFLKKAAKVGAKVGMAALG [KH.S908.1] | – | < 3.125 | 6.25 | < 3.125 | MIC, P. aeruginosa (NBRC 12582) [3]: 6.25 µM
6 | KLKTWPKNYWRKVWSKKNWRKFVKKFKHW [KH.S921.1] | – | < 3.125 | – | < 3.125 | MIC, P. aeruginosa (NBRC 12582) [3]: < 3.125 µM
7 | RRRRRIAARIGSGVAQTGGELI [KH.C1.365, cationic amphipathic α-helical segment with Na4vSS less than − 30, synthetic peptide] | no or weak antimicrobial activities | – | – | – | –
8 | SRRRFDFSRRRIYVARRRSLAFAHRRR [KH.C7.94] | – | 6.25 | 6.25 | 6.25 | –
9 | TINKKFRWHGKRKWWLRFVKQ [KH.S1531.4] | – | < 3.125 | 6.25 | < 3.125 | –
10 | WRSLGRTLLRLSHALKPLARRSGW [Ci-MAM-A, known salt-resistant LCAMP from C. intestinalis hemocyte EST database] | – | – | – | – | NaCl concentration in the presence of which antimicrobial activity is exhibited [2]: 450 mM
11 | WWLSRRRSSLFYWR [KH.C1.640] | – | < 3.125 | 12.5 | < 3.125 | –
12 | pexiganan | – | – | – | – | Potential for induction of bacterial resistance (bacteria): low potential for induction of bacterial resistance
